{"source": "paper PMC3185201", "about": "(Molecular pharmaceutics, 2011)", "origin": "cited, not measured here", "tested_on": "NEP 24.11", "conditions": "prior study", "data": [{"smiles": "CC[C@H](C)[C@H](NC(=O)[C@H](Cc1ccccc1)NC(=O)[C@H](CCC(=O)O)NC(=O)[C@H](CCCCN)NC(=O)[C@H](C)NC(=O)[C@H](C)NC(=O)[C@H](CCC(N)=O)NC(=O)[C@@H]1CCCCNC(=O)CC[C@H](NC(=O)[C@H](CO)NC(=O)[C@@H](NC(=O)[C@H](CC(=O)O)NC(=O)[C@H](CO)NC(=O)[C@@H](NC(=O)[C@H](Cc2ccccc2)NC(=O)[C@@H](NC(=O)CNC(=O)[C@H](CCC(=O)O)NC(=O)C(C)(C)NC(=O)[C@@H](N)Cc2c[nH]cn2)[C@@H](C)O)[C@@H](C)O)C(C)C)C(=O)N[C@@H](Cc2ccc(O)cc2)C(=O)N[C@@H](CC(C)C)C(=O)N[C@@H](CCC(=O)O)C(=O)N1)C(=O)N[C@H]1CCC(=O)NCCCC[C@@H](C(=O)NCC(=O)N[C@@H](CCCNC(=N)N)C(=O)NCCCCCC(=O)N[C@@H](CS)C(N)=O)NC(=O)[C@H](C(C)C)NC(=O)[C@H](CC(C)C)NC(=O)[C@H](Cc2c[nH]c3ccccc23)NC1=O", "note": "[EM3106B]", "values": [{"measurement": "Protection from the degradation by NEP 24.11", "value": "outstanding protection"}]}]}
